In patent publication US8981046B2, “Synthetic cell platforms and methods of use thereof” (The Regents of the University of California, priority 2007, dated 2015):

Key:
neural stem cells [1] = assay: qRT-PCR marker expression / differentiation of NSCs on peptide-modified hydrogels; assay type: cell-based, rat
Description: Stem cells are defined not only by their self-renewal but also their ability to undergo differentiation into one or more phenotypes. […] Therefore, the synthetic IPN, displaying an integrin-binding peptide, was able to substitute for laminin in supporting NSC proliferation and differentiation.
The effects of varying peptide identity and density on NSC differentiation were explored.
The box plots summarize the distribution of points, where the thick line signifies the median and the ends of the box are the 25th and 75th quartiles.

H1 hES cells = assay: H1 hES cell culture on peptide-conjugated IPN surfaces in NC-SFM; assay type: cell-based, human; conditions: for hESC culture outcome (Oct4, survival): H1 cells, NC-SFM, peptide-conjugated IPN
Procedure: To take an important step towards a fully chemically defined microenvironment, H1 hES cells were cultured,^17 for which a serum-free, defined medium has been developed. In addition, this feeder-free system involves culturing cells on tissue culture polystyrene coated with Matrigel, an ECM mixture of predominantly […], collagen IV, and heparan sulfate.^19, 82 Cells were grown in non-conditioned, serum free medium (NC-SFM), which consists of X-VIVO 10 (Cambrex, Walkersville, Md.) medium supplemented with 0.5 ng/mL TGF-β1 and 80 ng/mL FGF-2 (Invitrogen).
Cultures on Matrigel consisted of Oct4^+ hESC colonies interspersed with differentiated, Oct4-stromal cells derived from the hESCs, as previously described (note that the hESCs can be selectively passaged by timing the enzymatic digest).^82 H1 cells were also cultured in the NC-SFM on bsp-RGD(15) conjugated IPN surfaces (identical to those in FIGS. 3-4). […] Both HSF6 cells on the sIPN (FIG. 7) and H1 cells on the IPN were able to maintain Oct4 expression for 3 passages (˜10 days).

Akt = Akt activation in neural stem cells on peptide hydrogels (Western blotting); assay type: cell-based, rat; conditions: NSCs on biomimetic hydrogel
Description: The phosphoinositide-3 kinase (PI 3-kinase) signaling pathway, which can be activated by numerous cell surface receptors, has been implicated in regulating cell survival and proliferation in a number of contexts.^90-92 After ligation and activation of canonical receptors, phosphorylation of receptor tails on specific tyrosine residues recruits PI 3-kinase to the cell surface to phosphorylate phosphoinositide lipids. These lipids then recruit several kinases, including PDK1 and Akt. Phosphorylation of the latter by the former activates Akt, which then modulates a number of downstream effectors (such as Bad, mTOR, forkhead transcription factors, GSK-3β, and others) important in cell survival, proliferation, and other functions.^92, 93 Very importantly, PI 3-kinase and Akt signaling may be a general pathway important for stem cell proliferation and self-renewal. […] Finally, chemical or genetic inhibition of this pathway inhibits self-renewal, whereas overexpression of transducers in this pathway promotes self-renewal in a mitogen-independent fashion.
FIG. 8. […] Likewise relocalization of a PH-GFP genetic sensor to the cell surface acts as a sensor of PI 3-kinase signal activation after FGF-2 addition. An analogous genetic sensor of Akt based on FRET has been generated.^6

neural stem cells [2] = assay: NSC proliferation on peptide-grafted IPNs after 5 days (Cyquant); assay type: cell-based, rat; conditions: for cell proliferation: Cyquant, normalized to cells seeded
Description: Cell proliferation was quantified on peptide-grafted IPN surfaces after 5 days with Cyquant. The cell number was normalized to the amount of cells seeded on the IPN surfaces.

neural stem cells [3] = assay: NSC adhesion and proliferation on peptide-modified IPNs; assay type: cell-based, rat
Description: Neural stem cells are typically cultured on surfaces consisting of a poly(styrene)-based material with a passively adsorbed, animal-derived extracellular matrix (ECM) protein such as laminin or fibronectin.^67, 69 However, both animal- and human-derived ECM or proteins likely contain variable splice and glycoforms, offer limited micro- and nano-scale control of solid-phase signaling, pose problems with lot to lot variability, and otherwise present problems for therapeutic application.^16, 70 The ability of a peptide-modified interpenetrating polymer network (IPN) synthesized from acrylamide (AAm), poly(ethylene glycol) monomethyl ether monomethacrylate (pEGMA), and acrylic acid (AAc) monomers to support NSC growth was explored. NSCs isolated from the adult rat hippocampus,^67 were seeded onto 15 amino-acid bone sialoprotein RGD peptide [bsp-RGD(15)]-modified IPNs at various cell densities over four orders of magnitude.
FIG. 3.a-d) Bright field images of neural stem cells grown on peptide-modified IPNs or laminin-I in proliferating media conditions (1.2 nM FGF-2). e) Growth curves for proliferation of neural stem cells as assayed by a total nucleic acid stain. Data represent mean±standard deviation of 3-5 samples. Surfaces not in the same group (*, §, †, or ‡) were statistically different from one another (p<0.05; ANOVA between groups with Tukey-Kramer Honestly Significant Difference post-hoc test).

neural stem cells [4] = assay: Initial NSC attachment on peptide-grafted IPNs (Cyquant, 6 hours); assay type: cell-based, rat; conditions: various grafting concentrations
Procedure: IPNs were grafted with RGD, 7C-9, and 7C-24 peptides at various concentrations. After allowing neural stem cells attach to the surface for 6 hours, the amount of cells was quantified with Cyquant, a fluorescent DNA-binding dye.

neural stem cells [5] = assay: Flow cytometry binding of clonal peptide-displaying bacteria to neural stem cells; set-up: species or system rat; conditions: clonal bacterial populations after third round of selection
Description: This technology has also been used to identify peptides capable of binding to the surface of adult neural stem cells. Both N- and C-terminal peptide display libraries were screened on NSCs, with the first two rounds selected through centrifugal pelleting of NSCs to isolate bacterial clones displaying binding peptides, and the third round selected through FACS. Following the third round, numerous peptide clones were sequenced (˜30 novel sequences determined to date).
Three different, validated peptide libraries were pooled to generate a large library (>10^10 independent clones) and were used for selection and screening.^79 These libraries include a random 15-mer (—X15—) fused to either the N- or C-terminus of the CPX display scaffold and an N-terminal constrained library of the form X2CX7CX2. The library has been made intrinsically fluorescent using a bicistronic expression vector to enable co-expression of a green fluorescent protein optimized for FACS.
The bacterial library was screened for binding peptides. For the first two cycles, screening was again conducted by co-sedimentation, where as many as 10^8 NSCs suspended via mechanical disruption in 0.5 mM EDTA as described^82 were incubated with 10^10 bacteria prior to several gentle centrifugations and rinses. The resulting mixture was added directly to bacterial media (LB) for expansion of the binding clones. The second cycle repeated this process with 10-fold fewer bacteria for higher stringency. In the third cycle, after incubation with 10^6 NSCs and washing, cells were sorted (as in FIGS. 5-6) using a DAKO-Cytomation MoFlo flow cytometer in the UC Berkeley Cancer Center to stringently isolate bacteria that are bound to NSCs. The resulting sorted bacteria were expanded. Plasmid DNA was isolated from a number of individual clones (at least 100)^79 and subjected to DNA sequencing to identify the peptide responsible for binding to the NSC surface.
Bacterial peptide display libraries were constructed, as described above, and tested for binding capacity to neural stem cells. Clonal populations of the bacterial peptide display libraries after the third round of selection were analyzed via flow cytometry to measure the binding capacity of the clones. Sequences of the clones were determined through DNA sequence of the plasmid expressed by the bacteria. Table 5 presents amino acid sequences of peptides and the binding capacity to NSCs of bacterial clones displaying the peptides.

[6] = peptide hydrogel vs laminin, proliferating or differentiating media

Sequence | % NSCs with Bacteria (neural stem cells [5]) [%] | further results
CGGNGEPRGDTYRAY [bsp-RGD(15), 15 amino-acid bone sialoprotein RGD peptide] | – | nestin expression (qRT-PCR) (neural stem cells [1]; 21 pmol·cm^−2 peptide hydrogel vs laminin, 1.2 nM FGF-2): statistically indistinguishable levels of nestin; GFAP expression (qRT-PCR) (neural stem cells [1]; [6]): equal levels; β-tubulin III expression (qRT-PCR) (neural stem cells [1]; [6]): equal levels; maintenance of Oct4 expression (H1 hES cells; H1 cells on the IPN (~10 days)): 3 passages; hESC culture outcome (Oct4, survival) (H1 hES cells): high Oct4 levels in large hESC colonies; activation of Akt (Akt): activation of Akt to a greater extent than a surface displaying the negative control bsp-RGE(15) peptide; cell proliferation (neural stem cells [2]): much higher amount of cell proliferation than 7C-9 and 7C-24-grafted surfaces; NSC proliferation (neural stem cells [3]; highest peptide density, vs laminin-coated surfaces, p<0.05): slightly faster cell proliferation than standard laminin-coated surfaces; cell adhesion on IPN with lower peptide density (neural stem cells [3]; lower or no bsp-RGD(15), proliferating media): cells did not adhere effectively
CGGNGEPRGETYRAY [bsp-RGE(15), negative control peptide] | – | neuronal differentiation / neuronal marker expression (neural stem cells [1]; as bsp-RGD(15) density was decreased and this peptide increased): neuronal differentiation decreased; hESC culture outcome (Oct4, survival) (H1 hES cells): cells predominantly died; cell attachment (neural stem cells [4]): below the detection limit of the assay; cell proliferation (neural stem cells [2]): little or no cells detached; cell adhesion and morphology on peptide-modified IPN (neural stem cells [3]; proliferating media conditions (20 ng/ml FGF-2)): did not support attachment
DHKFGLVMLNKYAYAG [Clone 15-2] | 75.9 | –
DLCTYGHLWLGNGRP [Clone 15-59] | 22.5 | –
ESCWYQIMYKCAN [Clone 7C-2] | 55.2 | –
ESGLKVMCMKYYCMA [Clone 15-52] | 63.3 | –
FWCIRGEYWVCDR [Clone 7C-12] | 64.5 | –
GECFYYVMNTCVW [Clone 7C-6] | 61.8 | –
GFVLVWSYTCRCWGK [Clone 15-50] | 64.9 | –
GGCRWYAKWVCVW [Co-3] | 75.7 | –
IWCGSRFGCWCKP [Clone 7C-5] | 65.6 | –
KLCCFDKGYYCMR [Clone 7C-9] | 71.3 | cell proliferation at similar surface peptide concentration (neural stem cells [2]; low peptide surface concentrations, vs RGD surfaces): slower proliferation
LCCESYICALCHY [Clone 7C-11] | 37.7 | –
LECPGESKYYCIY [Co-11] | 72.7 | –
LECTERGDFNCFV [Clone 7C-7] | 47.8 | –
LEDAMGWALSWGHIW [Clone 15-6] | 70.2 | –
LNCAMYNACIW [Clone 7C-14] | 54.5 | –
LVCNRQNPWVCYI [Co-23] | 71.1 | –
MYCERDSKYWCIH [Co-21] | 70.9 | –
QCCQLRGDAVCNC [Clone 7C-15] | 54.0 | –
QGCAFVTYWACIF [Co-16] | 71.9 | –
RLCCWKTQYFCEI [Co-20] | 70.9 | –
RRELVRMTDWVWVSG [Clone 15-32] | 70.4 | –
SDWSVLLSCERWYCI [Clone 15-16] | 63.9 | –

Sequence | % NSCs with Bacteria (neural stem cells [5]) [%] | further results
SKCWGWTPYYCVA [Co-9] | 75.7 | –
SLCAAYNRWACIW [Co-1] | 73.8 | –
STCSWVSSYVCIM [Co-13] | 64.8 | –
VWCGMFGKRRCVT [Co-22] | 75.6 | –
WDCGKKNAWMCIW [Co-5] | 67.4 | –
WECAEESKFWCVF [Co-17] | 72.1 | –
WFCLLGRSAYCVR [Clone 7C-3] | 71.9 | –
WLCKGSNKYMCEW [Clone 7C-17] | 67.8 | –
WLCLDKNCMACVW [Clone 7C-8] | 68.8 | –
WMCSGVQPNACVW [Clone 7C-22] | 46.9 | –
WNCIKGSSWACVW [Clone 7C-21] | 75.5 | –
WQCGRFWCIHCLW [Co-19] | 50.6 | –
WRCLGDGYHACVR [Co-10] | 72.7 | –
WSCPKVNQYACFW [Co-2] | 74.8 | –
WTWESAFAGRWEVGD [Co-8] | 61.7 | –
WVCIWERFKSCNE [Clone 7C-20] | 65.7 | –
WVCLWRHRGDCSI [Co-12] | 74.3 | –
WVCNDLIHHFCVW [Co-15] | 70.9 | –
WVCNKLGVYACEY [Clone 7C-19] | 20.5 | –
WWCDMRGDSRCSG [Clone 7C-24] | 61.7 | –
WWCKKPEYWYCIW [Co-18] | 71.3 | –
WYCFRENKYVCVM [Clone 7C-1] | 75.2 | –
YMCMSRGDATCDV [Clone 7C-4] | 62.0 | –
